Reference: PubChem BioAssay (NCI)
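The concentration for 50% growth inhibition is given as GI50. TGI is the concentration that stops growth completely.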

Experiments:
Test in all cases: NCI-60 cell line screen, 384-well format
A498 renal = test system: A498 renal
A549 NSCLC = test system: A549 NSCLC
ACHN renal = test system: ACHN renal
BT-549 breast = test system: BT-549 breast
CAKI-1 renal = test system: CAKI-1 renal
COLO 205 colon = test system: COLO 205 colon
EKVX NSCLC = test system: EKVX NSCLC
HCC-2998 colon = test system: HCC-2998 colon
HCT-116 colon = test system: HCT-116 colon
HOP-62 NSCLC = test system: HOP-62 NSCLC
HOP-92 NSCLC = test system: HOP-92 NSCLC
HS 578T breast = test system: HS 578T breast
HT29 colon = test system: HT29 colon
IGROV1 ovarian = test system: IGROV1 ovarian
K-562 leukemia = test system: K-562 leukemia
KM12 colon = test system: KM12 colon
LOX IMVI melanoma = test system: LOX IMVI melanoma
MALME-3M melanoma = test system: MALME-3M melanoma
MCF7 breast = test system: MCF7 breast
MDA-MB-231 breast = test system: MDA-MB-231 breast
MDA-MB-468 breast = test system: MDA-MB-468 breast
MOLT-4 leukemia = test system: MOLT-4 leukemia
NCI-H23 lung = test system: NCI-H23 lung
NCI-H322M lung = test system: NCI-H322M lung
NCI-H460 NSCLC = test system: NCI-H460 NSCLC
NCI-H522 lung = test system: NCI-H522 lung
OVCAR-3 ovarian = test system: OVCAR-3 ovarian
OVCAR-4 ovarian = test system: OVCAR-4 ovarian
OVCAR-5 ovarian = test system: OVCAR-5 ovarian
OVCAR-8 ovarian = test system: OVCAR-8 ovarian
RPMI-8226 leukemia = test system: RPMI-8226 leukemia
RXF 393 renal = test system: RXF 393 renal
SF-268 CNS = test system: SF-268 CNS
SF-295 CNS = test system: SF-295 CNS
SF-539 CNS = test system: SF-539 CNS
SK-MEL-2 melanoma = test system: SK-MEL-2 melanoma
SK-MEL-28 melanoma = test system: SK-MEL-28 melanoma
SK-MEL-5 melanoma = test system: SK-MEL-5 melanoma
SK-OV-3 ovarian = test system: SK-OV-3 ovarian
SN12C renal = test system: SN12C renal
SW-620 colon = test system: SW-620 colon
T-47D breast = test system: T-47D breast
TK-10 renal = test system: TK-10 renal
U251 glioblastoma = test system: U251 glioblastoma
UACC-257 melanoma = test system: UACC-257 melanoma
UACC-62 melanoma = test system: UACC-62 melanoma
UO-31 renal = test system: UO-31 renal

`O=C(Nc1cccc(NS(=O)(=O)c2ccc(F)cc2)c1)c1ccc(-c2ccccc2)cc1` was tested. Which GI50 (A498 renal) did it give?
Its GI50 is 4.4 µM.

What about the TGI (A498 renal) of the same compound?
Its TGI is 16.8 µM.

And the GI50 (A549 NSCLC)?
The GI50 was 4.07 µM.

And the TGI (A549 NSCLC)?
Its TGI is > 100 µM.

What about the GI50 (ACHN renal) of the same compound?
Its GI50 is 4.13 µM.

What about the TGI (ACHN renal) of the same compound?
The TGI was 21.6 µM.

What about the GI50 (BT-549 breast) of the same compound?
Its GI50 is 2.89 µM.

And the TGI (BT-549 breast)?
Its TGI is 8.64 µM.

And the GI50 (CAKI-1 renal)?
The GI50 was 5.85 µM.

What about the TGI (CAKI-1 renal) of the same compound?
The TGI was 26.6 µM.

And the GI50 (COLO 205 colon)?
The GI50 was 4.33 µM.

And the TGI (COLO 205 colon)?
The TGI was 17.2 µM.

What about the GI50 (EKVX NSCLC) of the same compound?
The GI50 was 3.09 µM.

And the TGI (EKVX NSCLC)?
The TGI was 12.3 µM.

And the GI50 (HCC-2998 colon)?
Its GI50 is 6.02 µM.

And the TGI (HCC-2998 colon)?
Its TGI is 21.2 µM.

And the GI50 (HCT-116 colon)?
Its GI50 is 3.54 µM.

And the TGI (HCT-116 colon)?
Its TGI is 12.6 µM.

What about the GI50 (HOP-62 NSCLC) of the same compound?
The GI50 was 3.85 µM.

And the TGI (HOP-62 NSCLC)?
The TGI was 11.6 µM.

What about the GI50 (HOP-92 NSCLC) of the same compound?
Its GI50 is 2.94 µM.

And the TGI (HOP-92 NSCLC)?
Its TGI is 8.32 µM.

What about the GI50 (HS 578T breast) of the same compound?
Its GI50 is 3.7 µM.

And the TGI (HS 578T breast)?
Its TGI is 15.3 µM.

And the GI50 (HT29 colon)?
The GI50 was 4.49 µM.

What about the TGI (HT29 colon) of the same compound?
Its TGI is 21.5 µM.

And the GI50 (IGROV1 ovarian)?
Its GI50 is 10.4 µM.

And the TGI (IGROV1 ovarian)?
Its TGI is 37.1 µM.

And the GI50 (K-562 leukemia)?
Its GI50 is 2.6 µM.

What about the TGI (K-562 leukemia) of the same compound?
The TGI was 11.2 µM.

What about the GI50 (KM12 colon) of the same compound?
Its GI50 is 3.62 µM.

And the TGI (KM12 colon)?
Its TGI is 13.2 µM.

What about the GI50 (LOX IMVI melanoma) of the same compound?
Its GI50 is 3.31 µM.

What about the TGI (LOX IMVI melanoma) of the same compound?
Its TGI is 11.4 µM.

And the GI50 (MALME-3M melanoma)?
The GI50 was 4.23 µM.

And the TGI (MALME-3M melanoma)?
The TGI was 17.4 µM.

And the GI50 (MCF7 breast)?
Its GI50 is 4.23 µM.

And the TGI (MCF7 breast)?
Its TGI is 14.4 µM.

What about the GI50 (MDA-MB-231 breast) of the same compound?
The GI50 was 3.72 µM.

What about the TGI (MDA-MB-231 breast) of the same compound?
The TGI was 18.3 µM.

And the GI50 (MDA-MB-468 breast)?
Its GI50 is 3.1 µM.

What about the TGI (MDA-MB-468 breast) of the same compound?
Its TGI is 8.43 µM.

And the GI50 (MOLT-4 leukemia)?
Its GI50 is 1.81 µM.

And the TGI (MOLT-4 leukemia)?
The TGI was 3.64 µM.

And the GI50 (NCI-H23 lung)?
Its GI50 is 2.53 µM.

And the TGI (NCI-H23 lung)?
Its TGI is 8.44 µM.

And the GI50 (NCI-H322M lung)?
The GI50 was 3.9 µM.

What about the TGI (NCI-H322M lung) of the same compound?
The TGI was 19.7 µM.

What about the GI50 (NCI-H460 NSCLC) of the same compound?
Its GI50 is 3.23 µM.

And the TGI (NCI-H460 NSCLC)?
The TGI was 10.4 µM.

What about the GI50 (NCI-H522 lung) of the same compound?
The GI50 was 3.6 µM.

And the TGI (NCI-H522 lung)?
Its TGI is 15.2 µM.

And the GI50 (OVCAR-3 ovarian)?
Its GI50 is 7.05 µM.

What about the TGI (OVCAR-3 ovarian) of the same compound?
Its TGI is 20 µM.

What about the GI50 (OVCAR-4 ovarian) of the same compound?
The GI50 was 3.85 µM.

And the TGI (OVCAR-4 ovarian)?
The TGI was 18.2 µM.

What about the GI50 (OVCAR-5 ovarian) of the same compound?
Its GI50 is 7.57 µM.

What about the TGI (OVCAR-5 ovarian) of the same compound?
Its TGI is 26.7 µM.

And the GI50 (OVCAR-8 ovarian)?
The GI50 was 3.57 µM.

And the TGI (OVCAR-8 ovarian)?
Its TGI is 13.3 µM.

What about the GI50 (RPMI-8226 leukemia) of the same compound?
The GI50 was 1.47 µM.

And the TGI (RPMI-8226 leukemia)?
The TGI was 3.75 µM.

And the GI50 (RXF 393 renal)?
The GI50 was 2.02 µM.

And the TGI (RXF 393 renal)?
The TGI was 4.91 µM.

And the GI50 (SF-268 CNS)?
The GI50 was 3.93 µM.

What about the TGI (SF-268 CNS) of the same compound?
Its TGI is 17.2 µM.

And the GI50 (SF-295 CNS)?
The GI50 was 2.79 µM.

What about the TGI (SF-295 CNS) of the same compound?
The TGI was 10.1 µM.

And the GI50 (SF-539 CNS)?
Its GI50 is 3.17 µM.

And the TGI (SF-539 CNS)?
The TGI was 11.1 µM.

What about the GI50 (SK-MEL-2 melanoma) of the same compound?
The GI50 was 12.9 µM.

What about the TGI (SK-MEL-2 melanoma) of the same compound?
The TGI was 26.3 µM.

And the GI50 (SK-MEL-28 melanoma)?
Its GI50 is 17.1 µM.

What about the TGI (SK-MEL-28 melanoma) of the same compound?
The TGI was 38.5 µM.

What about the GI50 (SK-MEL-5 melanoma) of the same compound?
Its GI50 is 2.56 µM.

And the TGI (SK-MEL-5 melanoma)?
Its TGI is 7.94 µM.

And the GI50 (SK-OV-3 ovarian)?
Its GI50 is 5.43 µM.

What about the TGI (SK-OV-3 ovarian) of the same compound?
The TGI was 28.3 µM.

What about the GI50 (SN12C renal) of the same compound?
The GI50 was 3.45 µM.

And the TGI (SN12C renal)?
The TGI was 11.8 µM.

And the GI50 (SW-620 colon)?
The GI50 was 4.54 µM.

And the TGI (SW-620 colon)?
Its TGI is 16.2 µM.

What about the GI50 (T-47D breast) of the same compound?
The GI50 was 2.03 µM.

And the TGI (T-47D breast)?
The TGI was 9.91 µM.

What about the GI50 (TK-10 renal) of the same compound?
Its GI50 is 4.17 µM.

And the TGI (TK-10 renal)?
The TGI was 19.2 µM.

And the GI50 (U251 glioblastoma)?
Its GI50 is 2.35 µM.

And the TGI (U251 glioblastoma)?
Its TGI is 5.72 µM.

What about the GI50 (UACC-257 melanoma) of the same compound?
The GI50 was 4.02 µM.

What about the TGI (UACC-257 melanoma) of the same compound?
Its TGI is 16.7 µM.

And the GI50 (UACC-62 melanoma)?
Its GI50 is 3.38 µM.

And the TGI (UACC-62 melanoma)?
Its TGI is 15 µM.

What about the GI50 (UO-31 renal) of the same compound?
The GI50 was 3.59 µM.

What about the TGI (UO-31 renal) of the same compound?
The TGI was 13.5 µM.
